Test results from patent US4690891A, “Method and the microorganism and enzyme used therein for degrading the xanthan molecule” (Exxon Research and Engineering Company, priority 1985, dated 1987).
Read-outs that look alike come from different tables or passages of the source.

Assays:
[1] = system: culture B-15992; test: Effect of chemicals and biocide on growth of culture B-15992 in xanthan broth (viscosity loss); assay type: cell-based, Bacillus sp. / Flavobacterium sp. mixed culture NRRL B-15992
Description: Chemicals and biocides, including those used in enhanced oil recovery operations were studied for their effect on the growth of culture B-15992 and on the activity of xanthan-degrading enzyme(s). Both aerobic and anaerobic conditions were tested. In order to simulate the conditions used in EOR field operation, xanthan was produced in the laboratory by growing Xanthomonas campestris according to the published procedure, Jeanes, A., et al, (1976), "Polysaccharide (xanthan) of Xanthomonas campestris NRRL B-1459: Procedures for culture maintenance and polysaccharide production, purification and analysis". Agricultural Research Service, U.S. Department of Agriculture AR-NC-51. After centrifugation, the culture broth was autoclaved and was diluted with brine to about 300 cps viscosity. A cell suspension of culture B-15992 obtained from colonies grown on agar plates was used as the innoculum. Growth of B-15992 was followed by monitoring decreases of viscosity of the culture broth and by microscopic observation.

[2] = system: xanthan depolymerase; test: Inhibition of xanthan depolymerase activity, assayed viscosimetrically; assay type: biochemical, Bacillus sp. (culture NRRL B-15992)
Description: (§1) A novel xanthan depolymerase was purified from the culture supernatant and examined for its effect on degrading xanthan. In the following, enzyme assays were conducted with either viscosity or reducing sugar measurements by incubating a 1.25 ml xanthan stock solution and a small amount of enzyme(s) at 25° C. Xanthan stock solution was prepared by dissolving 0.188% xanthan, 0.4 mM MgSO4, and 0.03 mM MnSO4 in 0.05 M sodium acetate buffer pH 5.4. At certain time intervals samples were taken for either viscosity or reducing sugar assay. Viscosity was measured at 25° C. (using a Contraves low-shear 30 rheometer, Middlesex, U.K. at a shear rate of 1.3 sec.^-1 1). The rheometer was equipped with a refrigerated circulating bath (Neslab Endoccal bath, Portsmouth, N.H.). Reducing sugars, calculated as glucose, were determined by the method of Somogyi, M., (1945), "A New Reagent for the Determination of Sugars", J. Biol. Chem. 160, 61-69. […] The changes in viscosity and reducing sugars between two time intervals (1.0 min to 2.0 min for Δ cps, 0.5 min to 1.5 min for Δ reducing sugars) were measured. Enzyme activity (in units) was expressed as Δ cps/min (depolymerase) or Δμmoles reducing sugar group released (as glucose) per min. (for both endo and exoglucanases). Specific enzyme activity was expressed as units per mg of protein.
Various chemicals including thiols, metal ions and metal-chelating agents were tested for inhibition of xanthan depolymerase activity. These chemicals (at 1 mM concentration unless otherwise stated) were added into xanthan stock solutions. Enzyme activity was assayed viscosimetrically.

[3] = system: culture B-15992
Excerpt: The stable mixed culture is hereinafter designated NRRL B-15992.

[4] = system: xanthan depolymerase; test: Substrate specificity of xanthan depolymerase; assay type: biochemical, Bacillus sp. (culture NRRL B-15992); conditions: forty μg of enzyme per assay
Description: as §1

`O=S([O-])S(=O)[O-].[Na+].[Na+]` [Na2 S2 O4, sodium dithionite] was tested, and the “Viscosity (cps after days incubation) Aerobic” value ([1]; 75 ppm, aerobic, xanthan broth about 300 cps at start) was 1.0 cps, the “Viscosity (cps after days incubation) Anaerobic” value ([1]; 75 ppm, about 300 cps at start) was 300 cps and the “inhibition of xanthan depolymerase activity” value ([2]; 0.2%) was “not inhibited”. For the same compound, the “inhibition of xanthan depolymerase activity” value ([2]; 100 ppm) was “not inhibited”.

`Clc1ccccc1` [chlorobenzene] was tested, and the “inhibition of xanthan depolymerase activity” value ([2]; 100 ppm) was “not inhibited”.

`O=C(O)CC(O)(CC(=O)O)C(=O)O` [citric acid] was tested, and the “inhibition of xanthan depolymerase activity” value ([2]; 5.5 mM) was “not inhibited”.

In the case of `[K+].[OH-]` [KOH], the “inhibition of xanthan depolymerase activity” value ([2]; 5.0 mM (Trizma ph 8.5)) is reported as “not inhibited”.

In the case of `N#CSCSC#N` [MBT 3522, methylene bisthiocyanate], the “inhibition of xanthan depolymerase activity” value ([2]; 100 ppm) is reported as “failed to inhibit”.

`N#CC(Br)(Br)C(N)=O` [dow Antimicrobial 7287, 2,2-dibromo-3-nitrilopropionamide] was tested, and the “inhibition of xanthan depolymerase activity” value ([2]; 100 ppm) was “failed to inhibit”.

In the case of `NC(=O)CI` [iodoacetamide], the “% Inhibition” value ([2]; inhibitor 1 mM) is reported as 0%.

In the case of `O=C(O)c1cc(SSc2ccc([N+](=O)[O-])c(C(=O)O)c2)ccc1[N+](=O)[O-]` [5,5'-dithio-bis-2-n-nitrobenzoic acid], the “% Inhibition” value ([2]; inhibitor 1 mM) is reported as 0%.

`[Cl-].[Na+]` [NaCl] was tested, and the “growth of culture B-15992” value ([3]; 10% salt concentration) was “completely inhibited”, the “growth of culture B-15992” value ([3]; salt concentration between 6-8%) was “somewhat slower” and the “growth of culture B-15992” value ([3]; up to 5% salt (NaCl) concentration) was “not inhibited”. The “inhibition of xanthan depolymerase activity” value [2] was “not inhibited”.

In the case of `O=C(O)c1cc[c]([Hg+])cc1.[OH-]` [p-hydroxymercuribenzoate], the “% Inhibition” value ([2]; inhibitor 1 mM) is reported as 40%.

ferrous sulfate was tested, and the “inhibition of xanthan depolymerase activity” value ([2]; 5.5 mM) was “not inhibited”.

With `[Cl][Fe]([Cl])[Cl]` [ferric chloride] the “% Inhibition” value [2] was 100% and the “inhibition of xanthan depolymerase activity” value [2] was “inhibited strongly”.

In the case of `NC(CO)(CO)CO` [Trizma], the “inhibition of xanthan depolymerase activity” value [2] is reported as “not inhibited”.

`NNC(N)=S` [thiosemicarbazide] was tested, and the “% Inhibition” value ([2]; inhibitor 1 mM) was 20%.

`[Na+].[O-]c1cc(Cl)c(Cl)cc1Cl` [Dowicide B, sodium trichlorophenate] was tested, and the “inhibition of xanthan depolymerase activity” value ([2]; 100 ppm) was “failed to inhibit”.

In the case of `[N-]=[N+]=[N-]` [sodium azide], the “% Inhibition” value ([2]; inhibitor 1 mM) is reported as 0%.

With `ClC(Cl)Cl` [chloroform] the “inhibition of xanthan depolymerase activity” value [2] was “not inhibited”.

For `O=C(O)CI` [iodoacetic acid], the “% Inhibition” value [2] was 0%.

`[Cl-].[K+]` [KCl] was tested, and the “inhibition of xanthan depolymerase activity” value ([2]; 1 mM) was “not inhibited”.

In the case of arsenomolybdate, the “inhibition of xanthan depolymerase activity” value ([2]; concentrations of Table VI) is reported as “inhibited strongly” and the “% Inhibition” value ([2]; inhibitor 4%) is reported as 100%.

With `On1ccccc1=S` [sodium omadine] the “inhibition of xanthan depolymerase activity” value [2] was “failed to inhibit”.

For `N.N.O=S(=O)(O)O` [ammonium sulfate], the “inhibition of xanthan depolymerase activity” value [2] was “not inhibited”.

`[Na+].[OH-]` [NaOH] was tested, and the “inhibition of xanthan depolymerase activity” value ([2]; 5.0 mM (Trizma ph 8.5)) was “not inhibited”.

For `OC[C@H]1O[C@H](O[C@H]2O[C@H](CO)[C@@H](O)[C@H](O)[C@H]2O)[C@H](O)[C@@H](O)[C@@H]1O` [D(+) trehalose], the “Enzyme Activity (μmoles reducing sugar/min)” value [4] was 0 μmoles reducing sugar/min.

In the case of `c1c[nH]cn1` [imidazole], the “% Inhibition” value [2] is reported as 30%.

With `c1ccc(-c2ccccn2)nc1` [α, α' bipyridyl] the “% Inhibition” value ([2]; inhibitor 1 mM) was 30%.

In the case of `O=C(CCl)c1ccc(O)c(O)c1` [α-chloro-3,4-dihydroxyacetophenone], the “inhibition of xanthan depolymerase activity” value ([2]; 100 ppm) is reported as “not inhibited”.

`N#CC(Br)(Br)C(N)=O` [DBNPA, 2,2-dibromo-3-nitrilopropionamide] was tested, and the “prevention of growth of B-15992” value ([1]; 10 ppm) was “not effective in preventing the growth of B-15992”, the “time until solution viscosity was lost” value ([1]; 10 ppm, aerobic) was no more than 5 days and the “Viscosity (cps after days incubation) Aerobic” value ([1]; 10 ppm, aerobic, 5 days) was 1.5 cps. The “Viscosity (cps after days incubation) Anaerobic” value ([1]; 10 ppm) was 300 cps.

With `OC[C@H]1O[C@@H](O[C@H]2[C@H](O)[C@@H](O)C(O)O[C@@H]2CO)[C@H](O)[C@@H](O)[C@@H]1O` (single isomer, unassigned) [D(+) cellobiose] the “Enzyme Activity (μmoles reducing sugar/min)” value [4] was 0 μmoles reducing sugar/min.

`c1cnc2c(c1)ccc1cccnc12` [1,10-phenanthroline] was tested, and the “% Inhibition” value ([2]; inhibitor 1 mM) was 0%.

In the case of `NC(N)=S` [thiourea], the “% Inhibition” value ([2]; inhibitor 1 mM) is reported as 20%.

In the case of Triton X-100, the “Viscosity (cps after days incubation) Aerobic” value ([1]; 500 ppm, aerobic) is reported as 90 cps, the “Viscosity (cps after days incubation) Anaerobic” value ([1]; 500 ppm) is reported as 300 cps and the “inhibition of xanthan depolymerase activity” value ([2]; 4%) is reported as “not inhibited”.

In the case of `OCl` [sodium hypochlorite], the “inhibition of xanthan depolymerase activity” value ([2]; 100 ppm) is reported as “not inhibited”.

With `C=O` [HCHO, formaldehyde] the “time for B-15992 to degrade the xanthan solution” value ([1]; 25 ppm, aerobic) was 9 days, the “Viscosity (cps after days incubation) Aerobic” value ([1]; 25 ppm, aerobic, 9 days, about 300 cps at start) was 1.5 cps and the “Viscosity (cps after days incubation) Anaerobic” value ([1]; 25 ppm) was 300 cps. For the same compound, the “prevention of growth of B-15992” value ([1]; 25 ppm, compared with 10 ppm DBNPA) was “somewhat more effective”, the “Viscosity (cps after days incubation) Aerobic” value ([1]; 50 ppm, aerobic) was 300 cps and the “Viscosity (cps after days incubation) Anaerobic” value ([1]; 50 ppm) was 300 cps. For the same compound, the “changes in solution viscosity or cell growth” value ([1]; 50 ppm, during 30 days of incubation) was “no changes in solution viscosity or cell growth” and the “inhibition of xanthan depolymerase activity” value [2] was “not inhibited”.

In the case of chlorophenol, the “inhibition of xanthan depolymerase activity” value ([2]; 100 ppm) is reported as “not inhibited”.

In the case of `CCN1C(=O)C=CC1=O` [N--ethylmaleimide], the “% Inhibition” value ([2]; inhibitor 1 mM) is reported as 40%.

`O=C(O)CN(CCN(CC(=O)O)CC(=O)O)CC(=O)O` [EDTA] was tested, and the “% Inhibition” value [2] was 0%.

`Oc1cccc2cccnc12` [8-hydroxyquinoline] was tested, and the “% Inhibition” value [2] was 0%.
